Experimental data reported in the NIST ThermoML archive (doi:10.1016/j.jct.2018.02.003).

Conditions: Liquid, Vibrating tube method

COC(F)(C(F)(F)C(F)(F)F)C(F)(C(F)(F)F)C(F)(F)F (centres undefined)
mass density [kg/m3]
Conditions | 333.15 K | 353.15 K | 373.15 K | 393.15 K
100 kPa | – | 1521.7 | – | –
1000 kPa | – | 1526.5 | 1473.5 | 1417.2
5000 kPa | – | 1545.6 | 1497.1 | 1446.9
10000 kPa | – | 1566.5 | 1521.9 | 1476.7
15000 kPa | – | 1584.7 | 1543.1 | 1501.4
20000 kPa | – | 1601 | 1561.5 | 1522.8
25000 kPa | 1653 | 1615.8 | 1578.3 | 1541.5
30000 kPa | 1665.2 | 1629.5 | 1593.7 | 1558.4
35000 kPa | 1676.5 | 1642.1 | 1607.7 | 1573.8
40000 kPa | 1687.3 | 1653.7 | 1620.4 | 1588
45000 kPa | 1697.5 | 1664.8 | 1632.5 | 1601
50000 kPa | 1707 | 1675.2 | 1643.9 | 1613.3
55000 kPa | 1716.1 | 1685.1 | 1654.6 | 1624.9
60000 kPa | 1724.7 | 1694.5 | 1664.7 | 1635.8
65000 kPa | 1733.1 | 1703.5 | 1674.3 | 1646
70000 kPa | 1741 | 1712.1 | 1683.4 | 1655.8
80000 kPa | 1756.1 | 1728.1 | 1700.6 | 1674.1
90000 kPa | 1770.2 | 1743.1 | 1716.5 | 1690.9
100000 kPa | 1783.3 | 1757 | 1731.3 | 1706.5
110000 kPa | 1795.6 | 1770.1 | 1745.1 | 1721
120000 kPa | 1807.3 | 1782.5 | 1758.1 | 1734.7
130000 kPa | 1818.5 | 1794.1 | 1770.3 | 1747.5
140000 kPa | 1829.1 | 1805.2 | 1782 | 1759.7
